For one data set, the target named is T1, human IRAK-4 (Homo sapiens, UniProt Q9NWZ3).
T1 construct: purchased Carna Biosciences 09 145
T1 sequence (Q9NWZ3 1-460): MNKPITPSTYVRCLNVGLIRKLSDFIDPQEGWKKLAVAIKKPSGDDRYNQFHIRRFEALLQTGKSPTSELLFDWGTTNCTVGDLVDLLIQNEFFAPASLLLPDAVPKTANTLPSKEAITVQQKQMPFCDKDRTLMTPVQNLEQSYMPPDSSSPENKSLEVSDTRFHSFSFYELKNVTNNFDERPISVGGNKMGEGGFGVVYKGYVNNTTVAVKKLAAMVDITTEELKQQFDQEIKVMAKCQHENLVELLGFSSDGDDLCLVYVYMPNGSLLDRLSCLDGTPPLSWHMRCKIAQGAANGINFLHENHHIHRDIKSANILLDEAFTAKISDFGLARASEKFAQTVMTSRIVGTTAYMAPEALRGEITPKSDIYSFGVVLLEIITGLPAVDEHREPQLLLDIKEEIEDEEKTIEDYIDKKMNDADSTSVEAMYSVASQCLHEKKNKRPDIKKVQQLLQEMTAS
The data set can be described thus: Phosphorylation IC50 determination for human IRAK-4 (ADP-Glo Kinase Assay). To be noted: human IRAK-4, substrate RIP140, Km ATP; read-out: IRAK4 ADPglo biochemical assay IC50. The procedure: The phosphorylation of the substrate RIP140 (SEQ ID1) by IRAK4 at Km ATP was detected with the ADP-Glo Kinase Assay (Promega, Cat #V9103), a luminescent kinase assay which measures the ADP formed from a kinase reaction. (Zegzouti et al. 2009) In a second step the kinase reaction was terminated and all the remaining ATP was depleted. In a final step the ADP was converted into ATP and this newly synthesized ATP was measured by using a luciferase/luciferin reaction with a luminescent reader. The luminescent signal positively correlated with kinase activity, in particular kinase inhibition giving a decrease of the luminescent signal.
For the semi-automated assay, the positive control (100% inhibition) was prepared by diluting 10 mM staurosporine stock mixture (20 μL) in water (3.8 mL) and DMSO (180 μL), thus resulting in a […] staurosporine solution at 1% DMSO (final concentration after further dilution in the kinase reaction).
For the automated assay, no pre-dilution of the 10 mM staurosporine stock was made. 10 mM staurosporine was spotted directly in the assay plate using acoustic dispensing and complemented with DMSO to result in a similar final concentration as mentioned above.
For the semi-automated assay, the negative control (0% inhibition) was prepared by mixing water (3.8 mL) and DMSO (200 μL) resulting in a final concentration of 1% DMSO after further dilution in the kinase reaction. For the automated assay no pre-dilution of DMSO was done. 100% DMSO was spotted directly on the assay plate.
The assay buffer solution was prepared at a concentration corresponding to 5 fold the final (most diluted) assay concentration by mixing a solution of 125 mM TRIS pH 7.5+0.05% Triton X-100+2.5 mM EGTA (5.27 mL) with 1M mgCl2 (72 μL), 1M DTT (57.6 μL), and 200 mM MnCl2 (360 μL).
For example, for the semi-automated method, the enzyme-substrate mixture was prepared by mixing water (3999 μL), assay buffer solution (1380 μL), 1 mM RIP140 (138 μL—SEQ ID1), and 200 ng/mL IRAK 4 (3.45 μL Carna Biosciences, 09 145).
For semi-automated method, the ATP mixture was prepared at a concentration corresponding to 2.5 fold the final (most diluted) assay concentration of the semi-automated method and 1.5 fold the final (most diluted) assay concentration of the automated method. For example, for the semi-automated method, the ATP mixture was prepared by mixing water (4126 μL), assay buffer solution (1380 μL), and 10 mM ATP (13.80 μL).
The assay are performed either in a semi-automated or fully automated manner. The assay volume and the incubation time of the ADP detection were different accordingly the method used.
The compounds were prepared as a serial dilution of 10 point dose responses with 1/5 dilution steps in 100% DMSO starting from 2 mM highest concentration, diluted 1/20 in water. 1 μL was transferred dry to the assay plates.
On each assay plate 32 wells of each control (positive & negative) were added, followed by 2 μL enzyme-substrate mixture.
The reaction was started by adding 2 μL diluted ATP (final concentration Km ATP) on the assay plates. Plates were centrifuged for a few seconds at 1000 rpm followed by an incubation at r.t. for 120 min.
The reactions were stopped and the unconsumed ATP was depleted by adding 5 μL ADP-glo Reagent (Promega, Cat #V9103) to the reaction. The plates were quickly centrifuged at 1000 rpm and incubated at r.t. for 40 min corresponding to full ATP depletion.
The ADP was converted back to ATP and luciferase and luciferin were introduced to detect ATP by adding 10 μL kinase detection reagent (Promega, Cat #V9103) to the reaction. The plates were centrifuged for a few seconds at 1000 rpm and incubated at r.t. for a further 30 min.
Luminescent read out was performed on an Envision luminescent reader (Perkin Elmer).
For the automated assay, the compounds were prepared as a serial dilution of 10 point dose responses with 1/5 dilution steps in 100% DMSO starting from 2 mM highest concentration. […]
Background: In ADP-Glo the light output rises with the ADP produced.

A further data set relates to Mouse Hepatocyte. The data set can be described thus: Metabolic stability in mouse hepatocytes. In kind it is in vitro ADME. To be noted: mouse cryopreserved hepatocytes, 1 μM. The procedure:
(§1) The aim of this assay is to determine the metabolic stability of the compound in hepatocytes (cryopreserved) of different species. Low hepatocyte stability may result in the formation of unwanted metabolites, high clearance, and therefore is not desirable.
(§2) A 10 mM stock solution of test compound in DMSO was first diluted in DMSO to 3 mM, and then in modified Krebs-Henseleit buffer (Sigma, K3753) to 5 μM. This compound dilution was added to a suspension of pooled cryopreserved hepatocytes (BioreclamationIVT) at 37° C. under gentle shaking.
(§3) Final reaction conditions were: 1 μM of test compound, 0.03% DMSO, 0.5 million viable hepatocytes/mL, and 75 μL incubation volume.
(§4) Testosterone (1 μM) and 7-hydroxycoumarin (1 μM) were used, respectively as phase I and phase II metabolic reaction controls.
(§5) After 0, 10, 20, 45, 90, 120 and 180 min of incubation, the reaction was terminated with 225 μL of MeCN:MeOH (2:1) containing 100 ng/mL of diclofenac as analytical internal standard. Samples were mixed, centrifuged and the supernatant analyzed by LC-MS/MS.
(§6) The instrument responses (ratios of test compound and internal standard peak areas) were referenced to the zero time point samples (considered as 100%) in order to determine the percentage of compound remaining.
(§7) Plots of percentage compound remaining were used to determine the intrinsic clearance in the hepatocyte incubations using the following equations:
(§8) Scaled Clint [L/h/kg]=Clint [μL/min/10^6 cells]*#(10) cells/g liver*60*(1/10^6) Scaled Clint unbound [L/h/kg]=Clint [L/h/kg]/Fu,inc where: fu,inc equals hepatocyte binding, derived from microsomal binding (fu,mic) by following equation: […]

A further data set concerns Human Hepatocyte. In words: Metabolic stability in human hepatocytes. The class given is in vitro ADME. To be noted: human cryopreserved hepatocytes, 1 μM. The procedure:
as §1, §2, §3, §4, §5, §6, §7, §8

The next data set in a line: Thermodynamic solubility. The settings on record: Fasted State Simulated Intestine Fluid (FaSSIF), 37 °C, fassif, thermodynamic from solid, Fasted State Simulated Intestine Fluid, read-out: Tsol FaSSIF. In kind it is physicochemical. How it is done:
In a 8 mL glass vial, 1-2 mg of dry matter of compound were added and stirred with the suitable buffers (Fed State Simulated Intestine Fluid, FeSSIF, or Fasted State Simulated Intestine Fluid, FaSSIF, or Fasted State Simulated Gastric Fluid, FaSSGF, or phosphate buffer pH 7.4) for 24 h at r.t. (for the buffer pH 7.4) or 37° C. (for the GI fluids). The concentration of the mixture was 1 mg/mL.
A volume of 1000 μL were sampled, centrifuged for 10 min at 10 000 rpm and 500 μL of the supernatant were filtered on captiva plate. The samples are diluted in duplicates in DMSO (F100 and F10). Then, a final dilution (F100) in 80/20 H2O/MeCN containing the internal standard (warfarin) was used for LCMS-MS analysis.
A standard curve was made starting from a 40,000 ng/mL stock in DMSO, freshly prepared from dry matter. Then, successive concentrations at 15,000, 11,000, 6,000, 2,500, 1,000, 375, 150 and 75 ng/mL in DMSO were prepared.
Three quality control samples were made: one of 10,000, 1,500 and 200 ng/mL in DMSO, also starting from the DMSO working stock solution at 40,000 ng/mL.
The standard curve and quality controls were diluted a F100 in 80/20 H2O/MeCN (with internal standard) and analyzed on LC/MS-MS (API4000 or API5500).
The samples were analyzed on LC-MS with a flow rate of 0.6 mL/min. The mobile phase A was 0.1% formic acid in water and the mobile phase B was 0.1% formic acid in 90% MeCN and 10% of water. The sample was run under positive or negative ion spray on Pursuit C18—5 μm (2.0×20 mm) column, from Agilent.
The ratio analyte/internal standard peaks areas of the standard curve were plotted in a graph and a linear or polynomial of the second order equation was used to calculate the unknown concentrations of the test compound.
Solubility values were reported in μM and g/mL.

≈ marks a conversion by molar mass, not a printed value.

One may read the IC50 as the midpoint of a concentration-inhibition curve. `COc1cc2nc(C3COCCO3)cn2cc1NC(=O)c1cccc(C(F)(F)F)n1` (stereo not shown) [Compound 4, N-[2-(1,4-dioxan-2-yl)-7-methoxy-imidazo[1,2-a]pyridin-6-yl]-6-(trifluoromethyl)pyridine-2-carboxamide]: the IC50 on human IRAK-4 lay within 0.1 to 5 nM. The “Mouse Hepatocyte stability (Perc. remaining at 90 min)” value in the data set with Mouse Hepatocyte is listed as 103.55 Perc. In the data set on Human Hepatocyte, the “Human Hepatocyte stability (Perc. remaining at 90 min)” value is listed as 85.9 Perc.

On to `COc1cc2nc(C3COCCO3)cn2cc1NC(=O)c1cccn(C)c1=O` (stereo not shown) [Compound 10, N-(2-(1,4-dioxan-2-yl)-7-methoxyimidazo[1,2-a]pyridin-6-yl)-1-methyl-2-oxo-1,2-dihydropyridine-3-carboxamide], for which the IC50 at human IRAK-4 was in the range of 10 to 50 nM. In “Thermodynamic solubility”, the solubility thermodynamic at 24 h was 86.2 µg/mL (≈ 224 µM). Besides, in the data set with Human Hepatocyte, the “Human Hepatocyte stability (Perc. remaining at 90 min)” value is given as 99.95 Perc.

Take `CCOc1c(NC(=O)c2cccn(C3CC3)c2=O)cn2cc(C3CCOCC3)nc2c1F` [Compound 12, 1-cyclopropyl-N-(7-ethoxy-8-fluoro-2-(tetrahydro-2H-pyran-4-yl)imidazo[1,2-a]pyridin-6-yl)-2-oxo-1,2-dihydropyridine-3-carboxamide]: the IC50 at human IRAK-4 lay in the range of 5 to 10 nM. The “Mouse Hepatocyte stability (Perc. remaining at 90 min)” value in the data set with Mouse Hepatocyte is recorded as 75.1 Perc. For the same compound, in the data set with Human Hepatocyte, the “Human Hepatocyte stability (Perc. remaining at 90 min)” value is recorded as 85.35 Perc. For `CC(F)(F)c1cccc(C(=O)Nc2cn3cc(C4COCCO4)nc3cc2C(N)=O)n1` (stereo not shown) [Compound 13, 6-(6-(1,1-difluoroethyl)picolinamido)-2-(1,4-dioxan-2-yl)imidazo[1,2-a]pyridine-7-carboxamide] the same measures were 0.1 to 5 nM, 72.8 Perc and 93.85 Perc.

For the compound `O=C(Nc1cn2cc(C3CCOCC3)nc2cc1C(=O)NC1CC1)c1cccc(C(F)(F)F)n1` [Compound 15, N-cyclopropyl-2-(tetrahydro-2H-pyran-4-yl)-6-(6-(trifluoromethyl)picolinamido)imidazo[1,2-a]pyridine-7-carboxamide], at human IRAK-4, the IC50 lay in the range of 10 to 50 nM. Still for that read-out and setting: next, `CCNC(=O)c1cc2nc(C3CCOCC3)cn2cc1NC(=O)c1cccc(C(F)(F)F)n1` [Compound 16, N-ethyl-2-(tetrahydro-2H-pyran-4-yl)-6-(6-(trifluoromethyl)picolinamido)imidazo[1,2-a]pyridine-7-carboxamide]: 10 to 50 nM; `O=C(Nc1cn2cc(C3CCOCC3)nc2cc1C(=O)NCC(F)F)c1cccc(C(F)(F)F)n1` [Compound 17, N-(2,2-difluoroethyl)-2-(tetrahydro-2H-pyran-4-yl)-6-(6-(trifluoromethyl)picolinamido)imidazo[1,2-a]pyridine-7-carboxamide]: 5 to 10 nM.

For `CC(C)(C)NC(=O)c1cc2nc(C3CCOCC3)cn2cc1NC(=O)c1cccc(C(F)(F)F)n1` [Compound 18, N-(tert-butyl)-2-(tetrahydro-2H-pyran-4-yl)-6-(6-(trifluoromethyl)picolinamido)imidazo[1,2-a]pyridine-7-carboxamide], the half-inhibitory concentration (IC50) at human IRAK-4 is 10 to 50 nM.

Take `O=C(Nc1cn2cc(C3CCOCC3)nc2cc1C(=O)NCC(F)(F)F)c1cccc(C(F)(F)F)n1` [Compound 21, 2-(tetrahydro-2H-pyran-4-yl)-N-(2,2,2-trifluoroethyl)-6-(6-(trifluoromethyl)picolinamido)imidazo[1,2-a]pyridine-7-carboxamide]: the IC50 on human IRAK-4 lay in the range of 10 to 50 nM. `O=C(Nc1cn2cc(C3CCOCC3)nc2cc1C(=O)NC1COC1)c1cccc(C(F)(F)F)n1` [Compound 22, N-(oxetan-3-yl)-2-(tetrahydro-2H-pyran-4-yl)-6-(6-(trifluoromethyl)picolinamido)imidazo[1,2-a]pyridine-7-carboxamide]: the IC50 on human IRAK-4 was 10 to 50 nM. The same measure, in the same setting: the value for `COc1cc2nc(C3CCS(=O)(=O)CC3)cn2cc1NC(=O)c1cccn(C)c1=O` [Compound 24, N-(2-(1,1-dioxidotetrahydro-2H-thiopyran-4-yl)-7-methoxyimidazo[1,2-a]pyridin-6-yl)-1-methyl-2-oxo-1,2-dihydropyridine-3-carboxamide] was 10 to 50 nM.

The record behind these values is US20220296573A1, “NOVEL COMPOUNDS AND PHARMACEUTICAL COMPOSITIONS THEREOF FOR THE TREATMENT OF INFLAMMATORY DISORDERS” (Galapagos NV, priority 2019, published 2022).
